Data: patent publication US20250289879A1, “THERAPEUTIC MODULATION OF GENES IN MYELOID LINEAGE CELLS AND USES THEREOF IN OPHTHALMOLOGY” (The Children's Medical Center Corporation, priority 2022, published 2025)

Experiments:
SOCS3 = settings: reported (refs 56, 57, 49); cited from earlier work
laser-induced CNV mice = settings: previously reported (ref 49), vs control treatment; cited from earlier work
OIR mice = assay: Oxygen-induced retinopathy (OIR) mouse model, NV and VO areas on retinal flat mounts; type: in vivo
Description: OIR was carried out using neonatal mice as described previously (Smith et al., 1994). Briefly, mouse pups with nursing female mice were exposed to 75% oxygen from postnatal day (P) 7 to 12, then returned to room air until to P17 for phenotypical analysis and gene expression at indicated time. For phenotypical analysis, the retinas were collected at P17, dissected, and stained with fluorescent dye conjugated-Griffonia Simplicifolia Isolectin IB4 (Invitrogen) overnight and flat-mounted. The avascular (vasoobliteration, VO) and pathological neovascularization (NV) areas were quantified (Connor et al., 2009) by masked researchers using Image J (National Institutes of Health, imagej.nih.gov/ij/) and Adobe Photoshop (Adobe Systems). The exclusion criteria for the OIR mouse model was used as described previously. Mice with bodyweight less than 5 grams at P17 were excluded from the study (Stahl et al., 2010).
OIR was carried out using neonatal mice as described previously^81. Briefly, mouse pups with nursing female mice were exposed to 75% oxygen from postnatal day (P) 7 to 12, then returned to room air until P17 for phenotypical analysis and gene expression analysis at indicated times. For phenotypical analysis, the retinas were collected at P17, dissected, and stained with fluorescent dye conjugated with Griffonia Simplicifolia Isolectin IB4 (Invitrogen) overnight and flat-mounted. The avascular (vaso-obliteration, VO) and pathological NV areas were quantified^82 by masked researchers using Image J (National Institutes of Health) and fully automated deep learning segmentation method^83. The exclusion criteria for the OIR mouse model were used as previously described^84.
SOCS3 agonist, naringenin (400 mg/kg/day, gavage) 49, and control reagents were administrated to C57BL/6J OIR mice from P12 to P16. SOCS3 peptidomimetic and negative control (NC) peptides were synthesized and purified as described 74. […] The identity and purity of main products were evaluated by LC-MS and purified compounds were lyophilized and stored at −20° C. until use. […]

In the case of `O=C1C[C@@H](c2ccc(O)cc2)Oc2cc(O)cc(O)c21` [naringenin], the “SOCS3 expression, in words” value (SOCS3) is given as “induces SOCS3 expression”, the “effect on laser-induced CNV, in words” value (laser-induced CNV mice) is given as “significantly suppresses laser-induced CNV” and the “effect on retinal neovascularization (NV), in words” value (OIR mice; OIR retinas at P17, vs control treatment) is given as “significantly reduced NV”. The “effect on vaso-obliteration (VO) / blood vessel loss, in words” value (OIR mice; OIR retinas, vs control treatment) was “without influencing VO” and the “reduction of NV at P17 compared to controls” value (OIR mice; naringenin treatment from P12 to P16, 400 mg/kg/day, C57BL/6J OIR mice) was “about 50%”.
